Experimental data from PubChem BioAssay (NCI).
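1) Cells in 96-well plates. 2) Compound, 48 h, 5 concentrations. 3) Linear interpolation between surrounding doses. 4) Unreached endpoint = highest concentration. GI50: concentration for 50% inhibition of growth. TGI marks complete inhibition of growth.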

Experiments:
Test in all cases: growth of human tumour cells (NCI), 48 h
[1] = tested on: KM12 colon
[2] = tested on: BT-549 breast
[3] = tested on: T-47D breast
[4] = tested on: MOLT-4 leukemia
[5] = tested on: RPMI-8226 leukemia
[6] = tested on: LOX IMVI melanoma
[7] = tested on: PC-3 prostate
[8] = tested on: UACC-257 melanoma
[9] = tested on: COLO 205 colon
[10] = tested on: SR leukemia
[11] = tested on: NCI-H460 lung
[12] = tested on: MDA-MB-231 breast
[13] = tested on: MDA-MB-435
[14] = tested on: OVCAR-5 ovarian
[15] = tested on: 786-0 renal
[16] = tested on: NCI-H522 lung
[17] = tested on: OVCAR-3 ovarian
[18] = tested on: SNB-75 CNS
[19] = tested on: OVCAR-8 ovarian
[20] = tested on: SK-OV-3 ovarian
[21] = tested on: OVCAR-4 ovarian
[22] = tested on: DU-145 prostate
[23] = tested on: IGROV1 ovarian
[24] = tested on: SK-MEL-2 melanoma
[25] = tested on: NCI/ADR-RES ovarian
[26] = tested on: U251 CNS
[27] = tested on: TK-10 renal
[28] = tested on: NCI-H226 lung
[29] = tested on: HOP-62 NSCLC
[30] = tested on: SF-268 CNS
[31] = tested on: M14 melanoma
[32] = tested on: MCF7 breast
[33] = tested on: HCT-15 colon
[34] = tested on: SN12C renal
[35] = tested on: SW-620 colon
[36] = tested on: EKVX NSCLC
[37] = tested on: NCI-H23 lung
[38] = tested on: SF-295 CNS
[39] = tested on: CAKI-1 renal
[40] = tested on: UACC-62 melanoma
[41] = tested on: A498 renal
[42] = tested on: HL-60(TB) leukemia
[43] = tested on: SK-MEL-5 melanoma
[44] = tested on: HT29 colon
[45] = tested on: SK-MEL-28 melanoma
[46] = tested on: ACHN renal
[47] = tested on: CCRF-CEM leukemia
[48] = tested on: HS 578T breast
[49] = tested on: HCT-116 colon
[50] = tested on: HOP-92 NSCLC
[51] = tested on: SF-539 CNS
[52] = tested on: A549 NSCLC
[53] = tested on: K-562 leukemia
[54] = tested on: MALME-3M melanoma
[55] = tested on: UO-31 renal
[56] = tested on: SNB-19 CNS
[57] = tested on: RXF 393 renal
[58] = tested on: HCC-2998 colon

SMILES: Cc1cn2c(/C=C3/C(=O)Nc4ccc(F)cc43)c(C)nc2s1
- GI50 [1]: 2340 nM
- TGI [1]: > 50 µM
- GI50 [2]: 8.52 µM
- TGI [2]: > 50 µM
- GI50 [3]: 10.2 µM
- TGI [3]: > 50 µM
- GI50 [4]: 5020 nM
- TGI [4]: 33.2 µM
- GI50 [5]: 20.3 µM
- TGI [5]: > 50000 nM
- GI50 [6]: 10.3 µM
- TGI [6]: > 50 µM
- GI50 [7]: 9.51 µM
- TGI [7]: > 50 µM
- GI50 [8]: 36.2 µM
- TGI [8]: > 50000 nM
- GI50 [9]: 1910 nM
- TGI [9]: > 50 µM
- GI50 [10]: 1670 nM
- TGI [10]: 5.14 µM
- GI50 [11]: 2400 nM
- TGI [11]: > 50 µM
- GI50 [12]: 12.1 µM
- TGI [12]: > 50 µM
- GI50 [13]: 1260 nM
- TGI [13]: 2970 nM
- GI50 [14]: 14.6 µM
- TGI [14]: > 50 µM
- GI50 [15]: 14.4 µM
- TGI [15]: > 50000 nM
- GI50 [16]: 3.22 µM
- TGI [16]: 18.7 µM
- GI50 [17]: 3.5 µM
- TGI [17]: > 50 µM
- GI50 [18]: 3760 nM
- TGI [18]: 15.6 µM
- GI50 [19]: 10.4 µM
- TGI [19]: > 50 µM
- GI50 [20]: 10.6 µM
- TGI [20]: > 50 µM
- GI50 [21]: 12.6 µM
- TGI [21]: > 50 µM
- GI50 [22]: 9.58 µM
- TGI [22]: 32.3 µM
- GI50 [23]: 2140 nM
- TGI [23]: 25 µM
- GI50 [24]: 8.76 µM
- TGI [24]: > 50000 nM
- GI50 [25]: 1.7 µM
- TGI [25]: 7.26 µM
- GI50 [26]: 5.96 µM
- TGI [26]: > 50 µM
- GI50 [27]: 22.2 µM
- TGI [27]: > 50 µM
- GI50 [28]: 17.1 µM
- TGI [28]: > 50 µM
- GI50 [29]: 8.81 µM
- TGI [29]: > 50 µM
- GI50 [30]: 12.6 µM
- TGI [30]: > 50 µM
- GI50 [31]: 2680 nM
- TGI [31]: 17 µM
- GI50 [32]: 1920 nM
- TGI [32]: > 50 µM
- GI50 [33]: 2730 nM
- TGI [33]: > 50 µM
- GI50 [34]: 8.56 µM
- TGI [34]: 27.4 µM
- GI50 [35]: 3180 nM
- TGI [35]: > 50 µM
- GI50 [36]: 17.3 µM
- TGI [36]: > 50 µM
- GI50 [37]: 7.85 µM
- TGI [37]: > 50 µM
- GI50 [38]: 3760 nM
- TGI [38]: 34.6 µM
- GI50 [39]: 9.21 µM
- TGI [39]: > 50 µM
- GI50 [40]: 3850 nM
- TGI [40]: 48.3 µM
- GI50 [41]: 9.59 µM
- TGI [41]: 25.8 µM
- GI50 [42]: 1980 nM
- TGI [42]: 8.15 µM
- GI50 [43]: 2310 nM
- TGI [43]: 9.61 µM
- GI50 [44]: 1680 nM
- TGI [44]: 14.9 µM
- GI50 [45]: 4110 nM
- TGI [45]: > 50000 nM
- GI50 [46]: 17.2 µM
- TGI [46]: > 50 µM
- GI50 [47]: 14.8 µM
- TGI [47]: > 50000 nM
- GI50 [48]: 7.98 µM
- TGI [48]: 28.2 µM
- GI50 [49]: 2920 nM
- TGI [49]: > 50 µM
- GI50 [50]: 4.74 µM
- TGI [50]: 29 µM
- GI50 [51]: 7.29 µM
- TGI [51]: 18.4 µM
- GI50 [52]: 6.37 µM
- TGI [52]: > 50 µM
- GI50 [53]: 1720 nM
- TGI [53]: > 50 µM
- GI50 [54]: 7.26 µM
- TGI [54]: > 50 µM
- GI50 [55]: 6.62 µM
- TGI [55]: 40.8 µM
- GI50 [56]: 5.56 µM
- TGI [56]: > 50 µM

SMILES: CC(C)CCC(=O)[C@@H](C)[C@H]1[C@@H](OC2OCC(O)C(O)C2NS(C)(=O)=O)C[C@H]2[C@@H]3CC=C4C[C@@H](O)CC[C@]4(C)[C@H]3CC[C@]12C (some centres undefined)
- GI50 [1]: 2770 nM
- TGI [1]: 11 µM
- GI50 [2]: 0.245 µM
- TGI [2]: 4.93 µM
- GI50 [3]: 3.93 µM
- TGI [3]: 23 µM
- GI50 [4]: 827 nM
- TGI [4]: 2.57 µM
- GI50 [5]: 0.12 µM
- TGI [5]: 419 nM
- GI50 [6]: 1.19 µM
- TGI [6]: 5.22 µM
- GI50 [7]: 0.982 µM
- TGI [7]: 4.16 µM
- GI50 [8]: 0.922 µM
- TGI [8]: 2310 nM
- GI50 [9]: 1420 nM
- TGI [9]: 5.92 µM
- GI50 [10]: 1030 nM
- TGI [10]: 8.39 µM
- GI50 [11]: 1420 nM
- TGI [11]: 4.86 µM
- GI50 [12]: 2 µM
- TGI [12]: 8.65 µM
- GI50 [13]: 880 nM
- TGI [13]: 2160 nM
- GI50 [14]: 4.89 µM
- TGI [14]: 16.8 µM
- GI50 [15]: 0.181 µM
- TGI [15]: 930 nM
- GI50 [16]: 5.05 µM
- TGI [16]: 12.5 µM
- GI50 [17]: 2.72 µM
- TGI [17]: 10.3 µM
- GI50 [18]: 571 nM
- TGI [18]: 9.58 µM
- GI50 [19]: 7.63 µM
- TGI [19]: 37.2 µM
- GI50 [20]: 1.27 µM
- TGI [20]: 5.04 µM
- GI50 [21]: 5.12 µM
- TGI [21]: 28.6 µM
- GI50 [22]: 3.42 µM
- TGI [22]: 20.4 µM
- GI50 [23]: 2220 nM
- TGI [23]: > 40 µM
- GI50 [24]: 0.739 µM
- TGI [24]: 2270 nM
- GI50 [25]: 9.82 µM
- TGI [25]: > 40 µM
- GI50 [26]: 0.901 µM
- TGI [26]: 7.8 µM
- GI50 [27]: 6.63 µM
- TGI [27]: 23.5 µM
- GI50 [29]: 1.26 µM
- TGI [29]: 6.34 µM
- GI50 [30]: 1.25 µM
- TGI [30]: 6.99 µM
- GI50 [31]: 512 nM
- TGI [31]: 1.58 µM
- GI50 [32]: 1260 nM
- TGI [32]: 5.73 µM
- GI50 [33]: 2230 nM
- TGI [33]: 9.44 µM
- GI50 [34]: 8.36 µM
- TGI [34]: > 40 µM
- GI50 [35]: 1540 nM
- TGI [35]: 6.02 µM
- GI50 [36]: 1.46 µM
- TGI [36]: 8.85 µM
- GI50 [37]: 3.3 µM
- TGI [37]: 12.7 µM
- GI50 [38]: 141 nM
- TGI [38]: 0.595 µM
- GI50 [39]: 1.16 µM
- TGI [39]: 5.56 µM
- GI50 [40]: 790 nM
- TGI [40]: 1.95 µM
- GI50 [41]: 0.724 µM
- TGI [41]: 1.7 µM
- GI50 [57]: 178 nM
- TGI [57]: 783 nM
- GI50 [43]: 1260 nM
- TGI [43]: 4.51 µM
- GI50 [58]: 5.04 µM
- TGI [58]: 11.7 µM
- GI50 [44]: 3020 nM
- TGI [44]: 12.5 µM
- GI50 [45]: 530 nM
- TGI [45]: 1530 nM
- GI50 [46]: 2.15 µM
- TGI [46]: 11.6 µM
- GI50 [47]: 0.424 µM
- TGI [47]: 2470 nM
- GI50 [48]: 0.423 µM
- TGI [48]: 3.41 µM
- GI50 [49]: 715 nM
- TGI [49]: 5.74 µM
- GI50 [50]: 3.02 µM
- TGI [50]: 10.6 µM
- GI50 [51]: 0.202 µM
- TGI [51]: 1.11 µM
- GI50 [52]: 3.55 µM
- TGI [52]: 11.5 µM
- GI50 [53]: 1370 nM
- TGI [53]: 5.55 µM
- GI50 [54]: 0.91 µM
- TGI [54]: 4.29 µM
- GI50 [55]: 0.782 µM
- TGI [55]: 2.12 µM
- GI50 [56]: 1.34 µM
- TGI [56]: 6.77 µM
